According to paper PMC4435632, “Phase 1 study of ixazomib, an investigational proteasome inhibitor, in advanced non-hematologic malignancies” (Investigational New Drugs, 2015):

Legend:
[1] = Ixazomib in tumor biopsies (LC/MS/MS); assay type: in vivo, human; settings: TPEC, 1.76 mg/m^2; 10 evaluable patients
Description: Tumor biopsies were analyzed for the presence of ixazomib using a quantified LC/MS/MS methodology validated in xenograft models. Expression of ATF-3 was measured in the TPEC using an IHC staining assay developed and validated using preclinical and human primary tumor samples. For this assay, formalin-fixed, paraffin-embedded tumor biopsy samples were obtained pre- and post-treatment (at 4–24 h post-dosing on day 1 or day 4 of cycle 1). Six 5 μm sections from each tumor sample were then cut (10 μm apart) and stained with antibody to ATF-3 (Santa Cruz Biotechnology, Inc., sc-188, lot:K1908) on a Discovery XT autostainer (Ventana Medical Systems, Inc.). After staining, whole slides were scanned and analyzed to calculate the percentage ATF-3-positive area for each section using the Genie™ (Aperio® ePathology Solutions) pattern recognition tool. The ATF-3-positive area was measured within the tumor region using the Positive Pixel Count algorithm, and the percentage ATF-3-positive area/total tumor area was then calculated for each section.
Approximately 16 patients were planned to be enrolled to the TPEC to estimate ixazomib concentrations in tumors and target engagement as ATF-3 expression levels. […] This value was used to determine the minimum number of sections (n = 6) for pharmacodynamic analysis and the size of the fold change in ATF-3 that could be detected with 80 % power. […]

[2] = test system: patients with advanced non-hematologic malignancies; test: Safety: adverse events graded by NCI-CTCAE v3.0, phase 1 study of IV ixazomib; assay type: in vivo
Source text: Patients received ixazomib as an IV bolus on days 1, 4, 8, and 11 of a 21-day cycle, for up to 12 cycles, or until disease progression or unacceptable toxicity. Patients who were thought to potentially benefit from prolonged therapy could receive continued treatment beyond 12 cycles according to the treating physician’s consideration. Patients could receive prophylactic antiviral therapy; prophylactic antidiarrheals and antiemetics were not employed initially but could be considered upon development of diarrhea or nausea/vomiting.
AEs were monitored throughout the study and were graded according to National Cancer Institute Common Terminology Criteria for Adverse Events (NCI-CTCAE) v3.0. Response assessments were undertaken by investigators using a consistent imaging modality in accordance with RECIST 1.0 [23] on days 18–21 of cycle 2 and subsequent cycles. For patients with prostate cancer, response and progressive disease were based on RECIST for measurable neoplastic disease or on measurement of serum PSA per modified PCWG2 criteria in the absence of measurable sites.
The safety population included all patients who received ≥1 dose of ixazomib, and the DLT-evaluable population, which was used for determination of the MTD, comprised patients who received all cycle 1 doses of ixazomib or experienced a DLT in cycle 1. […] The response-evaluable population included all patients who received ≥1 dose of ixazomib, had measurable disease at baseline, and had ≥1 post-baseline disease assessment. Approximately 16 response-evaluable patients were planned to be evaluated in each MTD expansion cohort.
All efficacy and safety data were summarized using descriptive statistics. Pharmacokinetic and pharmacodynamic parameters were calculated using noncompartmental methods (WinNonlin software v5.3).

ATF-3 = ATF-3 IHC staining in pre- and post-dose tumor biopsies; assay type: in vivo, human; settings: TPEC, 1.76 mg/m^2; seven evaluable tumor pairs
Description: This open-label, non-randomized, dose-escalation phase 1 study was conducted at 7 sites in the United States and Canada, with patients enrolled from March 02, 2009 to January 10, 2012. The primary objective of the trial was to determine the safety profile, establish the maximum tolerated dose (MTD), and inform the recommended phase 2 dose of IV ixazomib in patients with non-hematologic malignancies. Secondary objectives were to characterize the pharmacokinetics and pharmacodynamics of IV ixazomib in blood and to evaluate disease response. Drug distribution and target engagement in post-dose tumor samples was measured by determining the increase in ATF-3 levels in post-dose tumor samples compared with pre-dose samples by immunohistochemistry (IHC).
Tumor biopsies were analyzed for the presence of ixazomib using a quantified LC/MS/MS methodology validated in xenograft models. Expression of ATF-3 was measured in the TPEC using an IHC staining assay developed and validated using preclinical and human primary tumor samples. For this assay, formalin-fixed, paraffin-embedded tumor biopsy samples were obtained pre- and post-treatment (at 4–24 h post-dosing on day 1 or day 4 of cycle 1). […] After staining, whole slides were scanned and analyzed to calculate the percentage ATF-3-positive area for each section using the Genie™ (Aperio® ePathology Solutions) pattern recognition tool. […]

**Q.** Which results are given for CC(C)C[C@H](NC(=O)CNC(=O)c1cc(Cl)ccc1Cl)B(O)O [ixazomib]?
**A.** Ixazomib in post-dose tumor biopsies [1]: present in all 10 post-dose biopsies analyzed; Any on-study deaths ([2]; Dose-escalation cohort (n=23)): 3 (13) n (%); Any on-study deaths ([2]; MTD expansion cohort H&N (n=22)): 2 (9) n (%); Any on-study deaths ([2]; MTD expansion cohort NSCLC (n=20)): 0 n (%); Any on-study deaths ([2]; MTD expansion cohort PC (n=11)): 0 n (%); Any on-study deaths ([2]; MTD expansion cohort STS (n=20)): 1 (5) n (%); Any on-study deaths ([2]; MTD expansion cohort TPEC (n=20)): 1 (5) n (%); Any on-study deaths ([2]; Total (N=116)): 7 (6) n (%); Drug-related AE: alopecia ([2]; human, in vivo): < 1%; Drug-related AE: circumoral edema ([2]; human, in vivo): < 1%; Drug-related AE: dermatitis acneiform ([2]; human, in vivo): 2%; Drug-related AE: dry skin ([2]; human, in vivo): 2%; Drug-related AE: erythema nodosum ([2]; human, in vivo): < 1%; Drug-related AE: exfoliative rash ([2]; human, in vivo): < 1%; Drug-related AE: night sweats ([2]; human, in vivo): < 1%; Drug-related AE: petechiae ([2]; human, in vivo): < 1%; Drug-related AE: pruritus ([2]; human, in vivo): 4%; Drug-related AE: rash ([2]; human, in vivo): 6%; Drug-related AE: rash erythematous ([2]; human, in vivo): 9%; Drug-related AE: rash macular ([2]; human, in vivo): 13%; Drug-related AE: rash maculo-papular ([2]; human, in vivo): 17%; Drug-related AE: rash papular ([2]; human, in vivo): 10%; Drug-related AE: rash pruritic ([2]; human, in vivo): 13%; Drug-related AE: skin exfoliation ([2]; human, in vivo): < 1%; Drug-related AE: skin hyperpigmentation ([2]; human, in vivo): < 1%; Drug-related AE: swelling face ([2]; human, in vivo): < 1%; Drug-related AE: urticaria ([2]; human, in vivo): < 1%; Drug-related PN NEC ([2]; human, in vivo): 15%; Drug-related PN NEC, grade 1 ([2]; human, in vivo): 6 n; Drug-related PN NEC, grade 2 ([2]; human, in vivo): 8 n; Drug-related grade ≥3 AE: erythema nodosum ([2]; human, in vivo): < 1%; Drug-related grade ≥3 AE: rash ([2]; human, in vivo): < 1%; Drug-related grade ≥3 AE: rash erythematous ([2]; human, in vivo): 2%; Drug-related grade ≥3 AE: rash macular ([2]; human, in vivo): 3%; Drug-related grade ≥3 AE: rash maculo-papular ([2]; human, in vivo): 7%; Drug-related grade ≥3 AE: rash papular ([2]; human, in vivo): < 1%; Drug-related grade ≥3 AE: rash pruritic ([2]; human, in vivo): 3%; Drug-related grade ≥3 fatigue ([2]; human, in vivo): 9%; Drug-related grade ≥3 thrombocytopenia ([2]; human, in vivo): 23%; Drug-related serious AE: dehydration ([2]; human, in vivo): 3%; Drug-related serious AE: fatigue ([2]; human, in vivo): 3%; Drug-related serious AE: nausea ([2]; human, in vivo): 3%; Drug-related serious AE: thrombocytopenia ([2]; human, in vivo): 6%; Drug-related serious AE: vomiting ([2]; human, in vivo): 3%; Drug-related serious AEs ([2]; human, in vivo): 28%; Drug-related thrombocytopenia ([2]; human, in vivo): 45%; Duration of rash, median ([2]; human, in vivo): 15 days; Duration of rash, range ([2]; human, in vivo): 4 to 90 days; Grade 3 PN NEC ([2]; human, in vivo): 3%; Patients who discontinued ixazomib due to treatment-emergent AEs ([2]; human, in vivo): 15%; Patients who required platelet transfusions ([2]; human, in vivo): 4%; Patients with ≥1 drug-related AE ([2]; human, in vivo): 90%; Patients with ≥1 drug-related grade ≥3 AE ([2]; human, in vivo): 57%; Patients with ≥1 treatment-emergent AE ([2]; human, in vivo): 99%; Patients with ≥1 treatment-emergent grade ≥3 AE ([2]; human, in vivo): 72%; Drug-related grade ≥3 skin and subcutaneous (SC) tissue disorders ([2]; human, in vivo, sc): 16%; Treatment-related skin and subcutaneous (SC) tissue disorders ([2]; human, in vivo, sc): 53%; On-study deaths ([2]; none considered treatment-related): seven; Paired tumor samples with statistically significant increase in post-dose ATF-3 levels (p <0.05) (ATF-3): Six of the seven
